Like-named read-outs stand apart in the source and are kept apart here.
Columns and labels:
VEGFR2 [1] = target: T1, VEGFR2 (Homo sapiens, UniProt P35968); assay: VEGFR2 (KDR) kinase inhibition (literature data set); type: biochemical
Description: The IC50 values of all compounds for B-Raf and KDR inhibition were converted to the −log IC50 (pIC50) as dependent variables in the 3D-QSAR analysis. The 3D structures for all 40 compounds were built and minimized, and then Gasteiger-Hückel charge was calculated.

B-Raf^V600E [2] = target: T2, B-Raf^V600E (Homo sapiens, UniProt P15056, V600E); assay: B-Raf^V600E kinase inhibition (literature data set); type: biochemical; conditions: −log IC50 of literature IC50; for IC50: read-out: B-Raf Actual pIC50 (converted)
Description: The IC50 values of all compounds for B-Raf and KDR inhibition were converted to the −log IC50 (pIC50) as dependent variables in the 3D-QSAR analysis. The 3D structures for all 40 compounds were built and minimized, and then Gasteiger-Hückel charge was calculated. All works were all done in SYBYL 6.9 (Tripos, Inc.: St. Louis, MO, USA, 2002).

VEGFR2 [3] = target: T1, VEGFR2; design: method as in PMID 22376051, PMID 22763369, PMID 22883026, PMID 23906342; conditions: literature values used as 3D-QSAR data set; read-out: Kinase IC50 VEGFR2; cited from earlier work
B-Raf^V600E [4] = target: T2, B-Raf^V600E; design: method as in PMID 22376051, PMID 22763369, PMID 22883026, PMID 23906342; conditions: literature values used as 3D-QSAR data set; read-out: Kinase IC50 B-Raf^V600E; cited from earlier work

T1 sequence (P35968 806-1171): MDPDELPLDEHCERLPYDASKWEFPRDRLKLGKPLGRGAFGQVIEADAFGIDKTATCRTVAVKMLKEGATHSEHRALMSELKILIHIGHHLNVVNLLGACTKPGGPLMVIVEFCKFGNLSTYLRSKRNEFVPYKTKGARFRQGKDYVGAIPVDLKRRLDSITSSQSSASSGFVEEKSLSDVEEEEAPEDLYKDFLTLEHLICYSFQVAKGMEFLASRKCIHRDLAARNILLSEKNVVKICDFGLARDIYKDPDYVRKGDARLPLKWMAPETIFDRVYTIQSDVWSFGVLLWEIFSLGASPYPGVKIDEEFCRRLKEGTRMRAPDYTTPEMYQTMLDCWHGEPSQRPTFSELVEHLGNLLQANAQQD
T2 sequence (P15056 whole entry V600E): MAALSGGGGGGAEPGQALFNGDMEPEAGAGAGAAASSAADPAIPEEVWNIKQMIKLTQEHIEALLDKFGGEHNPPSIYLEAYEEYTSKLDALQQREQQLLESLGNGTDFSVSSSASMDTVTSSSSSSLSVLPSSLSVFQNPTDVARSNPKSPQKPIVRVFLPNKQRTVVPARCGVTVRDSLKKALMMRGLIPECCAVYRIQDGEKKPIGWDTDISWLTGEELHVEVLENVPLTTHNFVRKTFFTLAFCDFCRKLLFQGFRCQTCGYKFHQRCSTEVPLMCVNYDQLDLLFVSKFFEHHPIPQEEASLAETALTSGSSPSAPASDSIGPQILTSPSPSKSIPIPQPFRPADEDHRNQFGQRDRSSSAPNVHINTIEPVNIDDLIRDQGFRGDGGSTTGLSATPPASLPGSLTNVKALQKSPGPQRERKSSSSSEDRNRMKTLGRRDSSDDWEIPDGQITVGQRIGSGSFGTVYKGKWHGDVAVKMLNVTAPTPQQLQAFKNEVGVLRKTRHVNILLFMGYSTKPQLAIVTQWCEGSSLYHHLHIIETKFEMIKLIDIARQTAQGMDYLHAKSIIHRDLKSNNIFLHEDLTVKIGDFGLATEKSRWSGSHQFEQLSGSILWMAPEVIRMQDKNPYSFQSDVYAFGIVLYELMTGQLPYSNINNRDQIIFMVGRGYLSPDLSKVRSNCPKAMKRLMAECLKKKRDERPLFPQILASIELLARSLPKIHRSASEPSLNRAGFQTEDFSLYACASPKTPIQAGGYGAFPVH

SMILES	KDR Actual pIC50 (VEGFR2 [1]; −log IC50 of literature IC50)	B-Raf Actual pIC50 (B-Raf^V600E [2])	IC50 (VEGFR2 [3]) [nM]	IC50 (VEGFR2 [1]) [nM]	IC50 (B-Raf^V600E [4]) [nM]	IC50 (B-Raf^V600E [2]) [nM]	IC50 (VEGFR2 [1]; −log IC50 of literature IC50, read-out: KDR Actual pIC50 (converted)) [nM]
CC(C)(C#N)c1cccc(C(=O)Nc2cccc(Oc3ccc4nc(NC(=O)C5CC5)sc4c3[N+](=O)[O-])c2)c1 [Compound 5-1]	7.15	7.60	–	–	–	–	–
N#CC1(c2cccc(C(=O)Nc3cc(Oc4ccc5nc(NC(=O)C6CC6)sc5n4)ccc3Cl)c2Cl)CC1 [Compound 3-4]	–	–	7.5	7.59	43	42.7	–
CC(C)(C)Oc1cccc(C(=O)Nc2cccc(Oc3ccc4nc(NC(=O)C5CC5)cn4n3)c2)c1 [Compound 1-10]	–	–	1.8	1.82	15	15.1	–
CC(C)(C#N)c1cccc(C(=O)Nc2cccc(Oc3ccc4nc(NC(=O)C5CC5)sc4c3CO)c2)c1 [Compound 5-4]	8.13	7.62	–	–	–	–	–
CC(=O)Nc1nc2ccc(N(C)c3ccc(F)c(NC(=O)c4cccc(OC(C)(C)C#N)c4Cl)c3)nc2s1 [Compound 3-7]	7.85	7.35	–	–	–	–	–
N#Cc1c(Oc2ccc(F)c(NC(=O)Nc3cccc(C(F)(F)F)c3)c2)ccc2nc(NC(=O)C3CC3)sc12 [Compound 6-3]	6.14	7.31	–	–	–	–	–
CC(C)(C#N)c1cccc(C(=O)Nc2cccc(Oc3ccc4nc(NC(=O)C5CC5)cn4n3)c2)c1 [Compound 1-12]	–	–	1.5	1.51	14	14.1	–
N#CC1(c2cccc(C(=O)Nc3cccc(Oc4ccc5nc(NC(=O)C6CC6)sc5n4)c3)c2Cl)CC1 [Compound 3-2]	–	–	4	3.98	9	8.91	–
CC(=O)Nc1nc2ccc(Oc3ccc(F)c(NC(=O)c4cccc(C5(C#N)CC5)c4Cl)c3)nc2s1 [Compound 3-5]	–	–	3.4	3.39	6.3	6.31	–
CC(=O)Nc1nc2cnc(Oc3cc(NC(=O)c4cccc(CCC#N)c4)ccc3C)nc2s1 [Compound 4-1]	–	–	410	407	51	51.3	–
N#CC1(c2cccc(C(=O)Nc3cccc(Oc4ccc5nc(NC(=O)C6CC6)sc5n4)c3)c2)CC1 [Compound 3-1]	–	–	2.2	2.19	3	3.02	–
CC(=O)Nc1nc2cnc(Oc3cc(NC(=O)c4cccc(OC(C)(C)C#N)c4)ccc3C)nc2s1 [Compound 4-3]	–	–	510	513	73	72.4	–
O=C(Nc1cccc(Oc2ccc3nc(NC(=O)C4CC4)cn3n2)c1)c1ccc(C(F)(F)F)cc1 [Compound 1-7]	–	–	1.9	1.91	81	81.3	–
O=C(Nc1cccc(Oc2ccc3nc(NC(=O)C4CCOCC4)cn3n2)c1)c1cccc(C(F)(F)F)c1 [Compound 1-1]	–	–	–	–	43	42.7	–
N#Cc1c(Oc2cccc(NC(=O)Cc3ccccc3C(F)(F)F)c2)ccc2nc(NC(=O)C3CC3)sc12 [Compound 6-5]	7.00	7.85	–	–	–	–	–
Cn1c(NC(=O)C2CC2)nc2ccc(Oc3cccc(NC(=O)c4cccc(C(C)(C)C#N)c4)c3)nc21 [Compound 2-4]	–	–	2.4	2.4	200	200	–
CC(=O)Nc1nc2cnc(Oc3cc(NC(=O)c4cccc(CC(C)(C)C#N)c4)ccc3C)nc2s1 [Compound 4-2]	–	–	300	302	–	100	–
O=C(Nc1cccc(Oc2ccc3nc(NC(=O)C4CC4)cn3n2)c1)c1ccccc1C(F)(F)F [Compound 1-8]	–	–	1.4	1.41	3700	3720	–
N#CC1(c2cccc(C(=O)Nc3cc(Oc4ccc5nc(NC(=O)C6CC6)sc5n4)ccc3F)c2Cl)CC1 [Compound 3-3]	–	–	–	–	–	7.08	2.19

SMILES	KDR Actual pIC50 (VEGFR2 [1]; −log IC50 of literature IC50)	B-Raf Actual pIC50 (B-Raf^V600E [2])	IC50 (VEGFR2 [3]) [nM]	IC50 (VEGFR2 [1]) [nM]	IC50 (B-Raf^V600E [4]) [nM]	IC50 (B-Raf^V600E [2]) [nM]	IC50 (VEGFR2 [1]; −log IC50 of literature IC50, read-out: KDR Actual pIC50 (converted)) [nM]
COc1cccc(C(=O)Nc2cccc(Oc3ccc4nc(NC(=O)C5CC5)cn4n3)c2)c1 [Compound 1-9]	–	–	0.31	0.309	18	18.2	–
N#Cc1c(Oc2cccc(NC(=O)Nc3ccccc3C(F)(F)F)c2)ccc2nc(NC(=O)C3CC3)sc12 [Compound 6-1]	6.92	7.72	–	–	–	–	–
O=C(Nc1cccc(Oc2ccc3nc(NC(=O)C4CC4)cn3n2)c1)c1cccc(C(F)(F)F)c1 [Compound 1-4]	–	–	1.9	1.91	7.6	7.59	–
CC(C)(C#N)c1cccc(C(=O)Nc2cccc(Oc3ccc4nc(NC(=O)C5CC5)cn4c3)c2)c1 [Compound 2-1]	–	–	1.8	1.82	49	49	–
O=C(Nc1cccc(Oc2ccc3nc(NC(=O)C4CCC4)cn3n2)c1)c1cccc(C(F)(F)F)c1 [Compound 1-5]	–	–	4.8	4.79	28	28.2	–
O=C(Nc1cccc(Oc2ccc3nc(NC(=O)C4CCCC4)cn3n2)c1)c1cccc(C(F)(F)F)c1 [Compound 1-6]	–	–	9.3	9.33	44	43.7	–
CC(C)(C#N)c1cccc(C(=O)Nc2cccc(Oc3ccc4nc(NC(=O)C5CC5)sc4c3C#N)c2)c1 [Compound 5-2]	7.12	7.89	–	–	–	–	–
CN(c1ccc(F)c(NC(=O)c2cccc(OC(C)(C)C#N)c2Cl)c1)c1ccc2nc(NC(=O)C3CC3)sc2n1 [Compound 3-8]	8.12	–	–	–	–	–	–
N#Cc1c(Oc2cccc(NC(=O)Cc3cccc(C(F)(F)F)c3)c2)ccc2nc(NC(=O)C3CC3)sc12 [Compound 6-6]	6.82	8.89	–	–	–	–	–
N#Cc1c(Oc2cccc(NC(=O)Nc3ccc(C(F)(F)F)cc3)c2)ccc2nc(NC(=O)C3CC3)sc12 [Compound 6-2]	6.48	7.74	–	–	–	–	–
COC(=O)c1c(Oc2cccc(NC(=O)c3cccc(C(C)(C)C#N)c3)c2)ccc2nc(NC(=O)C3CC3)sc12 [Compound 5-3]	7.48	7.92	–	–	–	–	–
CC(C)(C#N)c1cccc(C(=O)Nc2cccc(Oc3ccc4nc(NC(=O)C5CC5)[nH]c4c3)c2)c1 [Compound 2-2]	–	–	8.1	8.13	41	40.7	–
CC(=O)Nc1cn2nc(Oc3cccc(NC(=O)c4cccc(C(F)(F)F)c4)c3)ccc2n1 [Compound 1-2]	–	–	1.1	1.1	4.1	4.07	–
CC(C)(O)c1cccc(C(=O)Nc2cccc(Oc3ccc4nc(NC(=O)C5CC5)cn4n3)c2)c1 [Compound 1-11]	–	–	0.82	0.813	–	10	–
N#Cc1c(Oc2ccc(F)c(NC(=O)Cc3cccc(C(F)(F)F)c3)c2)ccc2nc(NC(=O)C3CC3)sc12 [Compound 6-8]	6.80	8.62	–	–	–	–	–
N#Cc1c(Oc2ccc(F)c(NC(=O)Nc3ccc(C(F)(F)F)cc3)c2)ccc2nc(NC(=O)C3CC3)sc12 [Compound 6-4]	6.18	7.59	–	–	> 26	–	–
N#Cc1c(Oc2cccc(NC(=O)Cc3ccc(C(F)(F)F)cc3)c2)ccc2nc(NC(=O)C3CC3)sc12 [Compound 6-7]	6.72	8.02	–	–	–	–	–
CC(=O)Nc1nc2ccc(N(C)c3ccc(F)c(NC(=O)c4cccc(OC(C)(C)C#N)c4)c3)nc2s1 [Compound 3-6]	8.00	7.64	–	–	–	–	–
